Results from PubChem BioAssay (NCI).
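Compound exposure: 48 hours, 5 concentrations, 96-well plates. TGI marks complete inhibition of growth.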

How the values were obtained:
Assay in all cases: DTP human tumour cell line panel, 48 h
[1] = tested on: 786-0 renal
[2] = tested on: A498 renal
[3] = tested on: A549 NSCLC
[4] = tested on: ACHN renal
[5] = tested on: BT-549 breast
[6] = tested on: CAKI-1 renal
[7] = tested on: CCRF-CEM leukemia
[8] = tested on: COLO 205 colon
[9] = tested on: DU-145 prostate
[10] = tested on: EKVX NSCLC
[11] = tested on: HCT-116 colon
[12] = tested on: HCT-15 colon
[13] = tested on: HL-60(TB) leukemia
[14] = tested on: HOP-62 NSCLC
[15] = tested on: HOP-92 NSCLC
[16] = tested on: HS 578T breast
[17] = tested on: HT29 colon
[18] = tested on: IGROV1 ovarian
[19] = tested on: K-562 leukemia
[20] = tested on: KM12 colon
[21] = tested on: LOX IMVI melanoma
[22] = tested on: M14 melanoma
[23] = tested on: MALME-3M melanoma
[24] = tested on: MCF7 breast
[25] = tested on: MDA-MB-231 breast
[26] = tested on: MDA-MB-435
[27] = tested on: MDA-N
[28] = tested on: MOLT-4 leukemia
[29] = tested on: NCI-H226 lung
[30] = tested on: NCI-H23 lung
[31] = tested on: NCI-H460 lung
[32] = tested on: NCI-H522 lung
[33] = tested on: NCI/ADR-RES ovarian
[34] = tested on: OVCAR-3 ovarian
[35] = tested on: OVCAR-4 ovarian
[36] = tested on: OVCAR-5 ovarian
[37] = tested on: OVCAR-8 ovarian
[38] = tested on: PC-3 prostate
[39] = tested on: RPMI-8226 leukemia
[40] = tested on: RXF 393 renal
[41] = tested on: SF-268 CNS
[42] = tested on: SF-295 CNS
[43] = tested on: SF-539 CNS
[44] = tested on: SK-MEL-2 melanoma
[45] = tested on: SK-MEL-28 melanoma
[46] = tested on: SK-MEL-5 melanoma
[47] = tested on: SK-OV-3 ovarian
[48] = tested on: SN12C renal
[49] = tested on: SNB-19 CNS
[50] = tested on: SNB-75 CNS
[51] = tested on: SR leukemia
[52] = tested on: SW-620 colon
[53] = tested on: T-47D breast
[54] = tested on: TK-10 renal
[55] = tested on: U251 CNS
[56] = tested on: UACC-257 melanoma
[57] = tested on: UACC-62 melanoma
[58] = tested on: UO-31 renal

Measured: TGI

Cc1c(C(=O)O)nc(/C=C/C(=O)O)[nH]c1=O
> 100 µM: all assays above

Nc1ccc2nc3n(c(=O)c2c1)CCCCC3
not listed: [49]
> 100 µM: all other assays above
